Data: ChEMBL document CHEMBL3885881, “DrugMatrix”

Species on record: Rattus norvegicus
Experiment: DrugMatrix - Regimen: Daily Repeat
Assay type: toxicity, organism-based, Sprague-Dawley
Parameters: regimen Daily Repeat, gender Male, age 6-8 weeks
Conditions: in vivo, po, route oral GAVAGE, vehicle 100 % WATER; for CREATININE / GLUCOSE / LACTATE DEHYDROGENASE / LIPASE / PHOSPHORUS / POTASSIUM / SODIUM / TOTAL BILIRUBIN / TOTAL PROTEIN / URIC ACID / ALANINE AMINOTRANSFERASE / ALBUMIN / ALKALINE PHOSPHATASE / ASPARTATE AMINOTRANSFERASE / BLOOD UREA NITROGEN / CARBON DIOXIDE / CHLORIDE / CHOLESTEROL / CREATINE PHOSPHOKINASE: tissue Plasma; for ABSOLUTE BASOPHIL / ABSOLUTE EOSINOPHIL / ABSOLUTE LYMPHOCYTE / ABSOLUTE MONOCYTE / ABSOLUTE SEGMENTED NEUTROPHIL / BASOPHIL / EOSINOPHIL / ERYTHROCYTE COUNT / HEMATOCRIT / HEMOGLOBIN / LEUKOCYTE COUNT / LYMPHOCYTE / MEAN CORPUSCULAR HEMOGLOBIN / MEAN CORPUSCULAR HEMOGLOBIN CONCENTRATION / MEAN CORPUSCULAR VOLUME / MONOCYTE / NEUTROPHIL / NUCLEATED RED BLOOD CELLS / PLATELET COUNT: tissue Blood
[1] = 25 mg/kg, 120 h, dose level Low, time 5 day
[2] = 54 mg/kg, 72 h, dose level High, time 3 day
[3] = 54 mg/kg, 120 h, dose level High, time 5 day
[4] = 80 mg/kg, 72 h, dose level High, time 3 day
[5] = 80 mg/kg, 120 h, dose level High, time 5 day

Compound: CCC1(c2ccccc2)C(=O)NC(=O)NC1=O [PHENOBARBITAL]
- CREATININE [1]: 0.15 mg/dL
- GLUCOSE [1]: 135.67 mg/dL
- LACTATE DEHYDROGENASE [1]: 131 u/L
- LIPASE [1]: 9.33 u/L
- PHOSPHORUS [1]: 11 mg/dL
- POTASSIUM [1]: 6.37 MEQ/L
- SODIUM [1]: 145.53 MEQ/L
- TOTAL BILIRUBIN [1]: 0.17 mg/dL
- TOTAL PROTEIN [1]: 6.23 G/DL
- URIC ACID [1]: 0.7 mg/dL
- ABSOLUTE BASOPHIL [2]: 0 CELLS/uL
- ABSOLUTE EOSINOPHIL [2]: 0 CELLS/uL
- ABSOLUTE LYMPHOCYTE [2]: 6613.67 CELLS/uL
- ABSOLUTE MONOCYTE [2]: 76.67 CELLS/uL
- ABSOLUTE SEGMENTED NEUTROPHIL [2]: 1009.67 CELLS/uL
- BASOPHIL [2]: 0%
- EOSINOPHIL [2]: 0%
- ERYTHROCYTE COUNT [2]: 5.6 x10E6/uL
- HEMATOCRIT [2]: 34.33%
- HEMOGLOBIN [2]: 13.17 G/DL
- LEUKOCYTE COUNT [2]: 7.7 x10E3/uL
- LYMPHOCYTE [2]: 86%
- MEAN CORPUSCULAR HEMOGLOBIN [2]: 23.53 pg
- MEAN CORPUSCULAR HEMOGLOBIN CONCENTRATION [2]: 38.37 G/DL
- MEAN CORPUSCULAR VOLUME [2]: 61.37 fL
- MONOCYTE [2]: 1%
- NEUTROPHIL [2]: 13%
- NUCLEATED RED BLOOD CELLS [2]: 0 /100WBC
- PLATELET COUNT [2]: 1130.67 x10E3/uL
- ALANINE AMINOTRANSFERASE [2]: 66.33 u/L
- ALBUMIN [2]: 3.9 G/DL
- ALKALINE PHOSPHATASE [2]: 296.33 u/L
- ASPARTATE AMINOTRANSFERASE [2]: 99.33 u/L
- BLOOD UREA NITROGEN [2]: 16.33 mg/dL
- CARBON DIOXIDE [2]: 35.67 mmol/L
- CHLORIDE [2]: 98.5 MEQ/L
- CHOLESTEROL [2]: 85.67 mg/dL
- CREATINE PHOSPHOKINASE [2]: 643 u/L
- CREATININE [2]: 0.14 mg/dL
- GLUCOSE [2]: 132.33 mg/dL
- LACTATE DEHYDROGENASE [2]: 152.67 u/L
- LIPASE [2]: 11 u/L
- PHOSPHORUS [2]: 10.93 mg/dL
- POTASSIUM [2]: 5.81 MEQ/L
- SODIUM [2]: 144.8 MEQ/L
- TOTAL BILIRUBIN [2]: 0.2 mg/dL
- TOTAL PROTEIN [2]: 5.87 G/DL
- URIC ACID [2]: 0.63 mg/dL
- ABSOLUTE BASOPHIL [3]: 0 CELLS/uL
- ABSOLUTE EOSINOPHIL [3]: 0 CELLS/uL
- ABSOLUTE LYMPHOCYTE [3]: 8394.67 CELLS/uL
- ABSOLUTE MONOCYTE [3]: 27.33 CELLS/uL
- ABSOLUTE SEGMENTED NEUTROPHIL [3]: 1011.33 CELLS/uL
- BASOPHIL [3]: 0%
- EOSINOPHIL [3]: 0%
- ERYTHROCYTE COUNT [3]: 5.14 x10E6/uL
- HEMATOCRIT [3]: 32.97%
- HEMOGLOBIN [3]: 12.8 G/DL
- LEUKOCYTE COUNT [3]: 9.43 x10E3/uL
- LYMPHOCYTE [3]: 89.33%
- MEAN CORPUSCULAR HEMOGLOBIN [3]: 24.87 pg
- MEAN CORPUSCULAR HEMOGLOBIN CONCENTRATION [3]: 38.83 G/DL
- MEAN CORPUSCULAR VOLUME [3]: 64.1 fL
- MONOCYTE [3]: 0.33%
- NEUTROPHIL [3]: 10.33%
- NUCLEATED RED BLOOD CELLS [3]: 0 /100WBC
- PLATELET COUNT [3]: 1251 x10E3/uL
- ALANINE AMINOTRANSFERASE [3]: 51 u/L
- ALBUMIN [3]: 4.2 G/DL
- ALKALINE PHOSPHATASE [3]: 333.33 u/L
- ASPARTATE AMINOTRANSFERASE [3]: 88.33 u/L
- BLOOD UREA NITROGEN [3]: 18.33 mg/dL
- CARBON DIOXIDE [3]: 32.67 mmol/L
- CHLORIDE [3]: 100.67 MEQ/L
- CHOLESTEROL [3]: 84 mg/dL
- CREATINE PHOSPHOKINASE [3]: 245.33 u/L
- CREATININE [3]: 0.16 mg/dL
- GLUCOSE [3]: 134.67 mg/dL
- LACTATE DEHYDROGENASE [3]: 129.33 u/L
- LIPASE [3]: 9.67 u/L
- PHOSPHORUS [3]: 10.53 mg/dL
- POTASSIUM [3]: 6.17 MEQ/L
- SODIUM [3]: 145.07 MEQ/L
- TOTAL BILIRUBIN [3]: 0.2 mg/dL
- TOTAL PROTEIN [3]: 6.4 G/DL
- URIC ACID [3]: 0.8 mg/dL
- BASOPHIL [4]: 0.45%
- EOSINOPHIL [4]: 0.45%
- ERYTHROCYTE COUNT [4]: 7.21 x10E6/uL
- HEMATOCRIT [4]: 44%
- HEMOGLOBIN [4]: 13.8 G/DL
- LEUKOCYTE COUNT [4]: 13.79 x10E3/uL
- LYMPHOCYTE [4]: 79.7%
- MEAN CORPUSCULAR HEMOGLOBIN [4]: 19.15 pg
- MEAN CORPUSCULAR HEMOGLOBIN CONCENTRATION [4]: 31.35 G/DL
- MEAN CORPUSCULAR VOLUME [4]: 61.05 fL
- MONOCYTE [4]: 2.35%
- NEUTROPHIL [4]: 15.8%
- PLATELET COUNT [4]: 1419.5 x10E3/uL
- ALANINE AMINOTRANSFERASE [4]: 37.33 u/L
- ALBUMIN [4]: 3.43 G/DL
- ALKALINE PHOSPHATASE [4]: 281 u/L
- ASPARTATE AMINOTRANSFERASE [4]: 57 u/L
- BLOOD UREA NITROGEN [4]: 12.33 mg/dL
- CHLORIDE [4]: 103 MEQ/L
- CHOLESTEROL [4]: 84.33 mg/dL
- CREATINE PHOSPHOKINASE [4]: 205.33 u/L
- CREATININE [4]: 0.37 mg/dL
- GLUCOSE [4]: 185 mg/dL
- PHOSPHORUS [4]: 13.43 mg/dL
- POTASSIUM [4]: 6.63 MEQ/L
- SODIUM [4]: 147 MEQ/L
- TOTAL BILIRUBIN [4]: 0.43 mg/dL
- TOTAL PROTEIN [4]: 5.8 G/DL
- BASOPHIL [5]: 0.43%
- EOSINOPHIL [5]: 0.4%
- ERYTHROCYTE COUNT [5]: 6.51 x10E6/uL
- HEMATOCRIT [5]: 40.63%
- HEMOGLOBIN [5]: 13.03 G/DL
- LEUKOCYTE COUNT [5]: 13 x10E3/uL
- LYMPHOCYTE [5]: 81.9%
- MEAN CORPUSCULAR HEMOGLOBIN [5]: 20.1 pg
- MEAN CORPUSCULAR HEMOGLOBIN CONCENTRATION [5]: 32.13 G/DL
- MEAN CORPUSCULAR VOLUME [5]: 62.43 fL
- MONOCYTE [5]: 2.6%
- NEUTROPHIL [5]: 13.63%
- PLATELET COUNT [5]: 1415.67 x10E3/uL
- ALANINE AMINOTRANSFERASE [5]: 40.33 u/L
- ALBUMIN [5]: 3.43 G/DL
- ALKALINE PHOSPHATASE [5]: 257 u/L
- ASPARTATE AMINOTRANSFERASE [5]: 54 u/L
- BLOOD UREA NITROGEN [5]: 12 mg/dL
- CHLORIDE [5]: 103.67 MEQ/L
- CHOLESTEROL [5]: 104 mg/dL
- CREATINE PHOSPHOKINASE [5]: 162.67 u/L
- CREATININE [5]: 0.37 mg/dL
- GLUCOSE [5]: 183.67 mg/dL
- PHOSPHORUS [5]: 12.7 mg/dL
- POTASSIUM [5]: 6.67 MEQ/L
- SODIUM [5]: 145.67 MEQ/L
- TOTAL BILIRUBIN [5]: 0.33 mg/dL
- TOTAL PROTEIN [5]: 5.87 G/DL
